Results on 5 compounds are retold here after patent US20080194616A1, “PYRIDOPYRIMIDINONE COMPOUNDS USEFUL IN TREATING SODIUM CHANNEL-MEDIATED DISEASES OR CONDITIONS” (Xenon Pharmaceuticals Inc., priority 2007, published 2008).

The subject of series [1] is PC12 (rat pheochromocytoma). Format: cell-based.
Another series relates to CHO-K1. Format: cell-based, Chinese Hamster.
The next series relates to SK-N-BE2C. Format: cell-based, human.
A further series relates to L6 (rat myoblast cell). Format: cell-based.
Another series concerns sodium channel. Briefly: Guanidine Influx Assay (In Vitro Assay). Format: cell-based, human or rat. The note with it: known cell line that expresses a sodium channel; read-out: IC50 Activity Level. From the text:
This example describes an in vitro assay for testing and profiling test agents against human or rat sodium channels stably expressed in cells of either an endogenous or recombinant origin. The assay is also useful for determining the IC-50 of a sodium channel blocking compound. The assay is based on the guanidine flux assay described by Reddy, N. L., et al., J. Med. Chem. (1998), 41(17):3298-302.
The guanidine influx assay is a radiotracer flux assay used to determine ion flux activity of sodium channels in a high-throughput microplate-based format. The assay uses ^14C-guanidine hydrochloride in combination with various known sodium channel modulators, to assay the potency of test agents. Potency is determined by an IC-50 calculation. Selectivity is determined by comparing potency of the compound for the channel of interest to its potency against other sodium channels (also called ‘selectivity profiling’).
Each of the test agents is assayed against cells that express the channels of interest. Voltage gated sodium channels are either TTX sensitive or insensitive. This property is useful when evaluating the activities of a channel of interest when it resides in a mixed population with other sodium channels. The following Table 1 summarizes cell lines useful in screening for a certain channel activity in the presence or absence of TTX.
Cells expressing the channel of interest are grown according to the supplier or in the case of a recombinant cell in the presence of selective growth media such as G418 (Gibco/Invitrogen). The cells are disassociated from the culture dishes with an enzymatic solution (1×) Trypsin/EDTA (Gibco/Invitrogen) and analyzed for density and viability using haemocytometer (Neubauer). Disassociated cells are washed and resuspended in their culture media then plated into Scintiplates (Beckman Coulter Inc.) (approximately 100,000 cells/well) and incubated at 37° C./5% CO2. for 20-24 hours. After an extensive wash with Low sodium HEPES-buffered saline solution (LNHBSS) (150 mM Choline Chloride, […] (Sigma), 1 mM Calcium Chloride, 5 mM Potassium Chloride, 1 mM Magnesium Chloride, 10 mM Glucose) agents diluted with LNHBSS are added to each well. (Varying concentrations of test agent may be used). The activation/radiolabel mixture contains aconitine (Sigma), and ^14C-guanidine hydrochloride (ARC).
After loading the cells with test agent and activation/radiolabel mixture, the Scintiplates are incubated at ambient temperature. Following the incubation, the Scintplates are extensively washed with LNHBSS supplemented with guanidine (Sigma). The Scintiplates are dried and then counted using a Wallac MicroBeta TriLux (Perkin-Elmer Life Sciences). The ability of the test agent to block sodium channel activity is determined by comparing the amount of ^14C-guanidine present inside the cells expressing the different sodium channels.
IC-50 value of a test agent for a specific sodium channel may be determined using the above general method. IC-50 may be determined using a 3,8,10,12 or 16 point curve in duplicate or triplicate with a starting concentration of 1, 5 or 10 μM diluted serially with a final concentration reaching the sub-nanomolar, nanomolar and low micromolar ranges. Typically the mid-point concentration of test agent is set at 1 μM, and sequential concentrations of half dilutions greater or smaller are applied (e.g. 0.5 μM; […] and 0.25 μM; 10 μM and 0.125 μM; 20 μM etc.). The IC-50 curve is calculated using the 4 Parameter Logistic Model or Sigmoidal Dose-Response Model formula (fit=(A+((B−A)/(1+((C/x)̂D)))).

For orientation: IC50 means the concentration needed to halve the response being measured. One may read the melting point as the temperature of the solid-liquid transition.

`NC1=N[C@H](O)[C@H]2[C@H]3O[C@]4(O)O[C@@H]([C@@H](O)[C@@]2(N1)[C@@H]4O)[C@]3(O)CO` [TTX, tetrodotoxin]: the “block of [14C] Guanidine influx” value in series [1] is recorded as “Guanidine influx was completely”; with CHO-K1, “Guanidine influx was completely”; in the series on SK-N-BE2C, “TTX partially blocked influx”; in the series with L6 (rat myoblast cell), “partially blocked by TTX (Nav1.5”.
In turn, `CCCCc1nc2ccccn2c(=O)c1-c1ccc(N[C@@H]2CCNC2)cc1.Cl` [Example 8, (R)-2-butyl-3-(4-(pyrrolidin-3-ylamino)phenyl)-4H-pyrido[1,2-a]pyrimidin-4-one hydrochloride] came in with a melting point of 171 to 174 °C. In the series on sodium channel, the IC50 was 1 to 10 µM.
The compound `CCCCc1nc2ccccn2c(=O)c1-c1ccc(NC(=O)[C@@H]2CCCN2C(=O)OC(C)(C)C)cc1` [Example 5, (S)-tert-butyl 2-{[4-(2-butyl-4-oxo-4H-pyrido[1,2-a]pyrimidin-3-yl)phenyl]carbamoyl}-pyrrolidine-1-carboxylate] had a melting point of 179 to 187 °C. In addition, the half-inhibitory concentration (IC50) with sodium channel was no less than 10 µM.
`CCCCc1nc2ccccn2c(=O)c1-c1ccc(N)cc1` [Example 1.14, 2-butyl-3-(4-aminophenyl)-4H-pyrido[1,2-a]pyrimidin-4-one] showed a melting point of 95 to 97 °C. Further, the IC50 in the series on sodium channel lay in the range of 0.1 to 1 µM.
Regarding `CC(C)Nc1nc2ccccn2c(=O)c1-c1ccc(NC2CCN(C(=O)OC(C)(C)C)C2)cc1` (stereo not drawn) [Example 3.22, tert-butyl 3-[(4-{2-[(1-methylethyl)amino]-4-oxo-4H-pyrido[1,2-a]pyrimidin-3-yl}phenyl)amino]pyrrolidine-1-carboxylate], the melting point was 210 to 212 °C. For the same compound, in the series on sodium channel, the IC50 is no less than 10 µM.
